Where two headings read alike, the source gives them in different places.
How the values were obtained:
[1] = head DL50*: data statistically significant
[2] = carrageenin-induced rat paw edema test (anti-inflammatory activity); assay type: in vivo; design: unit not given here; details: oral, one hour before 2% carrageenin, paw volume 5 hours after, values marked * (I, V, VI, VII, VIII) are statistically significant
Excerpt: For the determination of the anti-inflammatory activity, the carrageenin-induced rat paw edema test, as a modification of the method reported by C. A. Winth et al. (Proc. Soc. Exptl. Biol. Med., 111, 544; 1962) has been used. This method involves the reduction of the edema caused by the injection of a 2% carrageenin solution in the rat paw. The compounds under examination have been administered by oral route one hour before the injection of the edemigenic agent. The volume of the rat paw has been measured by a plethismometer before and 5 hours after the injection of the carrageenin.

[3] = ulcerogenic activity in rats (DU50); details: rat, in vivo
Excerpt: The ulcerogenic activity is expressed as DU50 in rats according to the method described by Dabrodie et al (Science, 170, 183; 1970).

[4] = tail compression test in mice (analgesic activity); assay type: in vivo, mouse; design: unit not given here; details: values marked * (I, II, III, VII) are statistically significant
Excerpt: The tail compression test has been carried out in mice according to the method described by C. Bianchi (Brit. J. Pharmacol., 11, 104; 1956) by determining the time in seconds between the algic stimulation and the reaction of the mouse.

[5] = in vivo; details: rat
[6] = in vivo; details: mouse
[7] = rats, head DU50*: data statistically significant, read-out: DU50 ulcerogenic activity

SMILES | DL50 acute toxicity, rat [1] | Anti-inflammatory activity DE50 [2] | TD50 [3] | Analgesic activity DE50 [4] | LD50 [5] | LD50 [6] | TD50 [3, 7]
CC(C)Cc1ccc(C(C)C(=O)O)cc1 (stereo not drawn) [Compound I, 2-(4-isobutylphenyl)propionic acid, reference compound] | 1480.00 mg/kg | 59.14 | 85.9 mg/kg | 5.28 |  |  | 
CC(C)Cc1ccc(C(C)C(=O)OC2OC(=O)c3ccccc32)cc1 (stereo not drawn) [Compound IA, phthalidyl 2-(4-isobutylphenyl)propionate] |  | 4.30 | 144 mg/kg | 2.08 | 2180 mg/kg | 1540 mg/kg | 
COc1ccc2cc([C@H](C)C(=O)O)ccc2c1 [Compound II, d-2-(6-methoxy-2-naphthyl)propionic acid, reference compound] |  | 16.36 |  | 21.90 |  |  | 78.7 mg/kg
COc1ccc2cc(C(C)C(=O)OC3OC(=O)c4ccccc43)ccc2c1 (stereo not drawn) [Compound IIA, phthalidyl d-2-(6-methoxy-2-naphthyl)propionate] |  | 14.82 | 133 mg/kg | 5.81 | 1060 mg/kg | 2140 mg/kg | 
CC(C(=O)O)c1cccc(C(=O)c2ccccc2)c1 (stereo not drawn) [Compound III, 2-(3-benzoylphenyl)propionic acid, reference compound] |  | 4.36 |  | 3.01 |  |  | 31.5 mg/kg
CC(C(=O)OC1OC(=O)c2ccccc21)c1cccc(C(=O)c2ccccc2)c1 (stereo not drawn) [Compound IIIA, phthalidyl 2-(3-benzoylphenyl)propionate] |  | 5.15 | 76.7 mg/kg | 1.34 | 342 mg/kg | 514 mg/kg | 
CC(C(=O)O)c1ccc(N2Cc3ccccc3C2=O)cc1 (stereo not drawn) [Compound IV, 2-[4-(1-oxo-2-isoindolinyl)phenyl]propionic acid, reference compound] |  | 5.45 | 51.1 mg/kg | 2.58 | 62.3 mg/kg | 536 mg/kg | 
CC(C(=O)OC1OC(=O)c2ccccc21)c1ccc(N2Cc3ccccc3C2=O)cc1 (stereo not drawn) [Compound IVA, phthalidyl 2-[4-(1-oxo-2-isoindolinyl)phenyl]propionate] |  | 4.45 | 116 mg/kg | 2.18 | 234 mg/kg | 987 mg/kg | 
C=CCOc1ccc(CC(=O)O)cc1Cl [Compound V, 4-allyloxy-3-chlorophenylacetic acid, reference compound] |  | 1058.45 | 214 mg/kg | 2.43 |  |  | 
C=CCOc1ccc(CC(=O)OC2OC(=O)c3ccccc32)cc1Cl (stereo not drawn) [Compound VA, phthalidyl 4-allyloxy-3-chlorophenylacetate] |  | 117.34 | 380 mg/kg | 2.50 | 1770 mg/kg | 2060 mg/kg | 
O=C(O)Cc1ccccc1Nc1c(Cl)cccc1Cl [Compound VI, 2-(2,6-dichloroanilino)phenylacetic acid, reference compound] |  | 189.54 |  | 3.81 |  |  | 13.1 mg/kg
O=C(Cc1ccccc1Nc1c(Cl)cccc1Cl)OC1OC(=O)c2ccccc21 (stereo not drawn) [Compound VIA, phtalidyl 2-(2,6-dichloroanilino)phenylacetate] |  | 144.21 | 26.1 mg/kg | 4.33 | 342 mg/kg | 593 mg/kg | 
O=C(O)CCC(=O)c1ccc(-c2ccccc2)cc1 [Compound VII, 4-(4-biphenylyl)-4-oxobutyric acid, reference compound] |  | 30.53 | 78.7 mg/kg | 4.02 |  |  | 
O=C(CCC(=O)c1ccc(-c2ccccc2)cc1)OC1OC(=O)c2ccccc21 (stereo not drawn) [Compound VIIA, phthalidyl 4-(4-biphenylyl)-4-oxobutyrate] |  | 20.08 | 146 mg/kg | 2.95 | 1380 mg/kg | 1400 mg/kg | 
O=C(O)Cc1ccc(-c2ccccc2)cc1 [Compound VIII, 4-biphenylylacetic acid, reference compound] |  | 21.79 | 65.3 mg/kg | 3.07 | 635 mg/kg | 750 mg/kg | 
O=C(Cc1ccc(-c2ccccc2)cc1)OC1OC(=O)c2ccccc21 (stereo not drawn) [Compound VIIIA, phtalidyl 4-biphenylylacetate] |  | 13.28 | 186 mg/kg | 2.78 | 1170 mg/kg | 1410 mg/kg | 

From patent publication US4529737A, “Analgesic and anti-inflammatory arylalkanoic acid phthalidyl esters and pharmaceutical compositions thereof” (priority 1979, dated 1985)
